Like-named read-outs stand apart in the source and are kept apart here.
Columns and labels:
GRK5 = biological target: T1, GRK5 (Homo sapiens, UniProt P34947); experiment: IC50 determination of compounds inhibiting GRK5 by Millipore KinaseProfiler (radiometric filtration binding assay); format: biochemical; details: 2 mg/mL casein, 40 minutes at room temperature
T1 construct: purchased Millipore
Protocol: IC50 values are determined by a radiometric based filtration binding assay, namely Millipore KinaseProfiler™. GRK5 is incubated with 8 mM MOPS pH 7.0, 0.2 mM EDTA, 2 mg/mL casein, 10 mM MgAcetate and […] (specific activity approx. 500 cpm/pmol, concentration as required). The reaction is initiated by the addition of the MgATP mix. After incubation for 40 minutes at room temperature, the reaction is stopped by the addition of 3 % phosphoric acid solution. 10 µL of the reaction is then spotted onto a P30 filtermat and washed three times for 5 minutes in 75 mM phosphoric acid and once in methanol prior to drying and scintillation counting.

full length GRK5 = biological target: T2, full length GRK5 (Homo sapiens, UniProt P34947); experiment: IC50 determination of compounds inhibiting GRK5 by ADP Glo Kinase Assay technology (Promega); format: biochemical
T2 construct: 6/2 fold concentrated full length GRK5 (Millipore, #14-714) in reaction buffer is added to each well; purchased Millipore 14-714
T2 sequence (P34947 whole entry): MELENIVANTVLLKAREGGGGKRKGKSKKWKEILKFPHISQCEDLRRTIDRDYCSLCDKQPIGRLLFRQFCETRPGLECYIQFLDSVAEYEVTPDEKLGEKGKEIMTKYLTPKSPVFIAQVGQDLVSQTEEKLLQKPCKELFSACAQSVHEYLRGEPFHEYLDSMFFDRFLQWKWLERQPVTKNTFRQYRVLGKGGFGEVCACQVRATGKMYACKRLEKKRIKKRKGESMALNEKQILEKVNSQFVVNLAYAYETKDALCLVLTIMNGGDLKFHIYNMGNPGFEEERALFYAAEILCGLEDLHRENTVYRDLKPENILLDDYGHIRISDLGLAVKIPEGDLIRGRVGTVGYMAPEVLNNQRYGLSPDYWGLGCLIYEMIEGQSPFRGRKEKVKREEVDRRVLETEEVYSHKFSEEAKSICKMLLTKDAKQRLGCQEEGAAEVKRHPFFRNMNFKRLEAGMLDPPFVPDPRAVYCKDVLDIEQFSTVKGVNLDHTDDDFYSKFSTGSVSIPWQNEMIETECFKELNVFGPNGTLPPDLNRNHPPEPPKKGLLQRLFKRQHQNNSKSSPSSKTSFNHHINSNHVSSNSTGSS

[1] = 20 nM GRK5, 18.7 µM ATP, 10 µM casein, 12 concentrations, triplicates, read-out: GRK5 IC50

T1 sequence (P34947 whole entry): as above

Row | Structure (SMILES) | IC50 (GRK5) [µM] | IC50 (full length GRK5; [1]) [µM] | IC50 (full length GRK5; read-out: GRK5 IC50, 20 nM GRK5, 18.7 µM ATP, 10 µM casein, 12 concentrations, triplicates) [µM]
1 | CC[C@H](NC(=O)c1ccc2c(c1)/C(=C/c1[nH]c(C)c(C(=O)N3CCCCC3)c1C)C(=O)N2)c1ccccc1 [Compound 57, (3Z)-3-{[3,5-dimethyl-4-(piperidin-1-ylcarbonyl)-1H-pyrrol-2-yl]methylene}-2-oxo-N-[(1S)-1-phenylpropyl]indoline-5-carboxamide] | > 30 | > 30 | –
2 | CC[C@H](NC(=O)c1ccc2c(c1)/C(=C/c1[nH]c(C)c(C(=O)NCCN(CC)CC)c1C)C(=O)N2)c1ccccc1 [Compound 62, (3Z)-3-[(4-{[2-(diethylamino)ethyl]carbamoyl}-3,5-dimethyl-1H-pyrrol-2-yl)methylene]-2-oxo-N-[(1S)-1-phenylpropyl]indoline-5-carboxamide] | > 30 | > 30 | –
3 | CC[C@@H](NC(=O)c1ccc2c(c1)/C(=C/c1[nH]c(C)c(C(=O)N3CCCCC3)c1C)C(=O)N2)c1ccccc1 [Compound 63, (3Z)-3-{[3,5-dimethyl-4-(piperidin-1-ylcarbonyl)-1H-pyrrol-2-yl]methylene}-2-oxo-N-[(1R)-1-phenylpropyl]indoline-5-carboxamide] | < 5 | < 5 | –
4 | COc1ccc([C@@H](C)NC(=O)c2ccc3c(c2)/C(=C/Nc2ccc(CN4CCCCC4)cc2)C(=O)N3)cc1 [Compound 70, (3Z)-N-[(1R)-1-(4-methoxyphenyl)ethyl]-2-oxo-3-({[4-(piperidin-1-ylmethyl)phenyl]amino}methylene)indoline-5-carboxamide] | < 5 | – | < 5
5 | C[C@@H](c1ccccc1)N(C)C(=O)c1ccc2c(c1)/C(=C/Nc1ccc(CN3CCCCC3)cc1)C(=O)N2 [Compound 71, (3Z)-N-methyl-2-oxo-N-[(1S)-1-phenylethyl]-3-({[4-(piperidin-1-ylmethyl)phenyl]amino}methylene)indoline-5-carboxamide] | < 5 | < 5 | –
6 | Cc1ccc([C@@H](C)NC(=O)c2ccc3c(c2)/C(=C/Nc2ccc(CN4CCCCC4)cc2)C(=O)N3)cc1 [Compound 72, (3Z)-N-[(1R)-1-(4-methylphenyl)ethyl]-2-oxo-3-({[4-(piperidin-1-ylmethyl)phenyl]amino}methylene)indoline-5-carboxamide] | < 5 | < 5 | –
7 | C[C@@H](NC(=O)c1ccc2c(c1)/C(=C/Nc1ccc(CN3CCCCC3)cc1)C(=O)N2)c1ccc(Cl)cc1 [Compound 73, (3Z)-N-[(1R)-1-(4-chlorophenyl)ethyl]-2-oxo-3-({[4-(piperidin-1-ylmethyl)phenyl]amino}methylene)indoline-5-carboxamide] | < 5 | < 5 | –

More lines, main results first:

Row | IC50 (GRK5) [µM] | IC50 (full length GRK5; [1]) [µM] | Structure (SMILES) | IC50 (full length GRK5; read-out: GRK5 IC50, 20 nM GRK5, 18.7 µM ATP, 10 µM casein, 12 concentrations, triplicates) [µM]
8 | > 30 | > 30 | Cc1[nH]c(/C=C2\C(=O)Nc3ccc(C(=O)N[C@@H](C)c4ccccc4)cc32)c(C)c1C(=O)N1CCCCC1 [Compound 54, (3Z)-3-{[3,5-dimethyl-4-(piperidin-1-ylcarbonyl)-1H-pyrrol-2-yl]methylene}-2-oxo-N-[(1S)-1-phenylethyl]indoline-5-carboxamide] | –
9 | < 5 | < 5 | Cc1[nH]c(/C=C2\C(=O)Nc3ccc(C(=O)N[C@H](C)c4cccc(Cl)c4)cc32)c(C)c1C(=O)N1CCCCC1 [Compound 55, (3Z)-N-[(1R)-1-(3-chlorophenyl)ethyl]-3-{[3,5-dimethyl-4-(piperidin-1-ylcarbonyl)-1H-pyrrol-2-yl]methylene}-2-oxoindoline-5-carboxamide] | –
10 | > 30 | > 30 | Cc1[nH]c(/C=C2\C(=O)Nc3ccc(C(=O)N[C@@H](C)c4cccc(Cl)c4)cc32)c(C)c1C(=O)N1CCCCC1 [Compound 56, (3Z)-N-[(1S)-1-(3-chlorophenyl)ethyl]-3-{[3,5-dimethyl-4-(piperidin-1-ylcarbonyl)-1H-pyrrol-2-yl]methylene}-2-oxoindoline-5-carboxamide] | –
11 | > 30 | > 30 | Cc1[nH]c(/C=C2\C(=O)Nc3ccc(C(=O)N[C@@H](C)c4ccc(F)cc4)cc32)c(C)c1C(=O)N1CCCCC1 [Compound 64, (3Z)-3-{[3,5-dimethyl-4-(piperidin-1-ylcarbonyl)-1H-pyrrol-2-yl]methylene}-N-[(1S)-1-(4-fluorophenyl)ethyl]-2-oxoindoline-5-carboxamide] | –
12 | > 30 | < 5 | COc1ccc([C@H](C)NC(=O)c2ccc3c(c2)/C(=C/c2[nH]c(C)c(C(=O)N4CCCCC4)c2C)C(=O)N3)cc1 [Compound 65, (3Z)-3-{[3,5-dimethyl-4-(piperidin-1-ylcarbonyl)-1H-pyrrol-2-yl]methylene}-N-[(1S)-1-(4-methoxyphenyl)ethyl]-2-oxoindoline-5-carboxamide] | –

From patent EP2837626A1, “Indolinone derivatives as GRK5 modulators” (Max-Planck-Gesellschaft zur Förderung der Wissenschaften …, priority 2013, dated 2015)
